{
  "source": "patent US8138191B2",
  "about": "“Inhibitor compounds and cancer treatment methods” (Critical Outcome Technologies Inc., priority 2007, dated 2012)",
  "key": {"[1]": {"target": "CYP1A (Homo sapiens, UniProt P05177)", "sequence (P05177 whole entry)": "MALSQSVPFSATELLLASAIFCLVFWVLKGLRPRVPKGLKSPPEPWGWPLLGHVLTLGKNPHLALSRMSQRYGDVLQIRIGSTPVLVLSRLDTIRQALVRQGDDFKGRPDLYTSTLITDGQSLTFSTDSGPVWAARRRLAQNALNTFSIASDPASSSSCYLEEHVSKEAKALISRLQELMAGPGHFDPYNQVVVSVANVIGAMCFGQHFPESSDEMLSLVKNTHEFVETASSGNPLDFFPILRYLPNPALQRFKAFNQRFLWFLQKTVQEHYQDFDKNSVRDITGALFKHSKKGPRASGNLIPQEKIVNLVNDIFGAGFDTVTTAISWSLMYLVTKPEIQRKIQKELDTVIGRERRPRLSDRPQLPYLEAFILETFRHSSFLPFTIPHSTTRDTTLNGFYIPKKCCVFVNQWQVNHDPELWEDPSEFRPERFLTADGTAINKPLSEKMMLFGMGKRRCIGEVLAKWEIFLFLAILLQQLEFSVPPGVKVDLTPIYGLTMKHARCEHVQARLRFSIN", "experiment": "in vitro", "details": "both"}, "[2]": {"target": "CYP2C9 (Homo sapiens, UniProt P11712)", "sequence (P11712 whole entry)": "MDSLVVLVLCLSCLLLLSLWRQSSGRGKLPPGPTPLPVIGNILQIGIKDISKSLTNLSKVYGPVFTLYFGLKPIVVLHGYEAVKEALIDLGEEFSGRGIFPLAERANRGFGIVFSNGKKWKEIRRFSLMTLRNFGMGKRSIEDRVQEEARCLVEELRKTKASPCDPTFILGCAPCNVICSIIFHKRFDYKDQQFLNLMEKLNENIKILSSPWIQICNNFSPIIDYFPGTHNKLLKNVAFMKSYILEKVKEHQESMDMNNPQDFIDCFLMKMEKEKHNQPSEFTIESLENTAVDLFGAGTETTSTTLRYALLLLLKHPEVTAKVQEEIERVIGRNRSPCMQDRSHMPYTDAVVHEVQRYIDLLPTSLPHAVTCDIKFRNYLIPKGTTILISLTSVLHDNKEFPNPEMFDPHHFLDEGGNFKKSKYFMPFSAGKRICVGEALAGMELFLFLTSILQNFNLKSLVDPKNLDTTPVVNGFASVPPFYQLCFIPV", "experiment": "in vitro", "details": "both"}, "[3]": {"test_system": "A549", "experiment": "in vitro IC50 against cancer cell lines, A549", "assay_type": "cell-based", "details": "Homo sapiens, 72 h; A549, NSCLC, 3 days"}, "[4]": {"test_system": "DMS114 cells", "experiment": "Proliferation with anti-cancer agents plus COTI-2, DMS114", "assay_type": "cell-based, human"}, "[5]": {"test_system": "PI3K activity in DMS114 cells", "experiment": "PI3-K activity (PIP3 detection, Echelon kit), DMS114", "assay_type": "cell-based, human", "details": "DMS114, 250 nM COTI-2 alone, 20 minutes", "description": "As a negative control, an equivalent volume of DMSO was utilized. […] To measure PI3-K activity, a commercial kit was purchased from Echelon. Following the procedures recommended by the manufacturer, membrane lipids were extracted in several steps and the resulting PIP3 was immobilized to nitrocellulose and measured by its interaction with a PH-domain containing protein and HRP-conjugated antibody supplied with the kit. As an additional control in these experiments, the specific PI3-K inhibitor, LY294002 was used to inhibit PI3-K and thus stop PIP3 production."}, "[6]": {"experiment": "in vitro", "assay_type": "in vitro ADME", "description": "(§1) Commercially obtained (Rockland Immunochemicals Inc.), non-sterile, species-specific plasma (human, monkey, and dog) with sodium anticoagulant added was utilized for this study. […] Dialysis membrane strips (12-14K MWCO) were presoaked in water and ethanol, rinsed and then kept in buffer until use. Following assembly of the 96-well dialysis apparatus, […] membrane strips placed between the dialysis and sample compartments. The dialysate compartment was loaded with 0.15 ml phosphate buffer was added to the dialysis side of each well. Plasma (unfiltered) was spiked with 10 μM COTI-2 (1% DMSO) and 0.15 ml added to the sample side of each well. After loading, samples are covered and incubated at 37° C. until equilibrium was reached (at least 8 hours). Equal volumes of sample were removed from the buffer and plasma sides of each well, diluted with acetonitrile/buffer and centrifuged. Also at this time an additional sample was prepared (in duplicate) by spiking COTI-2 in plasma at 10 μM, followed by sampling and diluting in acetonitrile/buffer in the same manner as the incubated plasma sample. This calibration sample served as the basis of a recovery determination. The supernatants were analyzed by HPLC-MS/MS and the peak response of COTI-2 in both dialysis and sample compartments, and in the calibration sample, were subsequently determined in two independent replicates. […] The HPLC conditions consist of a binary LC pump with autosampler, a C18 column (2×20 mm), and gradient elution. The percent bound to plasma/serum proteins and percent recovery of the compounds were calculated. The recovery determination serves as an indicator as to the reliability of the calculated protein binding value."}, "[7]": {"test_system": "dog plasma", "experiment": "in vitro", "assay_type": "in vitro ADME", "details": "mixed breeds, 10 µM", "description": "as §1"}, "[8]": {"test_system": "human plasma", "experiment": "in vitro", "assay_type": "in vitro ADME", "details": "10 µM", "description": "as §1"}, "[9]": {"test_system": "A460", "experiment": "in vitro IC50 against cancer cell lines, A460", "assay_type": "cell-based", "details": "Homo sapiens, 72 h; A460, NSCLC, 3 days", "description": "Briefly, cells were plated in plastic tissue culture plates and grown under standard conditions for each cell line, in carbon dioxide/oxygen atmosphere in plastic tissue culture plates, in the presence of COTI-2 or COTI-219 compounds at 35° C. for 3 days. Control cultures were treated with vehicle minus compound. Cells were counted after 3 days in culture and at a cell density of no more than 80%. The following cell lines, obtained from the National Cancer Institute, were tested: human SCLC cell lines DMS153, DMS114, SHP77; human NSCLC cell lines H226, A460, A560; human breast cancer cell lines T47D, MCF7; human colon cancer cell line HT29; and, human Leukemia cell lines K562, HL60."}, "[10]": {"test_system": "HCT-116 human colon tumor xenograft", "experiment": "HCT-116 human colon tumor xenograft model", "details": "for Deaths: N 10"}, "[11]": {"experiment": "Metabolic Stability (liver microsomes, monkey, Cynomolgus)", "assay_type": "in vitro ADME", "details": "1.0E−06 M, 60 min", "description": "Metabolic stability was determined in human (mixed gender and pool of 50) monkey (male Cynomolgus, pool of 6 or more), dog male, beagle, pool of 4 or more) and rat (male Sprague-Dawley, pool of 100 or more) liver microsomes. […] Four reference substrates (1 μM) were tested simultaneously with COTI-2. […] Peak areas corresponding to COTI-2 were recorded by HPLC-MS/MS. Metabolic stability, expressed as percent of COTI-2 remaining, was calculated by comparing the peak area of COTI-2 at 60 min to time zero."}, "[12]": {"test_system": "rat plasma", "experiment": "in vitro", "assay_type": "in vitro ADME", "details": "mixed breeds, 10 µM"}, "[13]": {"experiment": "in vitro", "assay_type": "in vitro ADME", "details": "mixed breeds, rat"}, "[14]": {"target": "CYP2C19 (Homo sapiens, UniProt P33261)", "sequence (P33261 whole entry)": "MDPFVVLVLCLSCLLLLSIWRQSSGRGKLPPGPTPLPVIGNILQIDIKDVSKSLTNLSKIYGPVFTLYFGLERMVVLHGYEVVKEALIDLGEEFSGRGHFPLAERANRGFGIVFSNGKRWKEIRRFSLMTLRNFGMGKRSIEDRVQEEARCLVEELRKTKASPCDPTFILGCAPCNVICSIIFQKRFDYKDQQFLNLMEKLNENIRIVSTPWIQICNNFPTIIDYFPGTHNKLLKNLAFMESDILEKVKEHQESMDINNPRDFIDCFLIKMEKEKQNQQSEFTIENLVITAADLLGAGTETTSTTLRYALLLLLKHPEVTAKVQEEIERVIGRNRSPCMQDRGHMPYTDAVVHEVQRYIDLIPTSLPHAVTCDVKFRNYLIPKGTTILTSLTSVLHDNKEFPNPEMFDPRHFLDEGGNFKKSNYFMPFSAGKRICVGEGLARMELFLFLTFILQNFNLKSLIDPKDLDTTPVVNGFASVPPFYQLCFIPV", "experiment": "in vitro", "details": "both"}},
  "data": [
    {"smiles": "S=C(N/N=C1/CCCc2cccnc21)N1CCN(c2ccccn2)CC1", "note": "[COTI-2]", "values": [
      {"measurement": "inhibition at 15 min, 10 µM", "setting": "[1]; human liver microsomes, pH 7.4, probe phenacetin (10 µM)", "value": -2, "unit": "%"},
      {"measurement": "inhibition at 15 min, 10 µM", "setting": "[1]; liver microsomes, pH 7.4, probe phenacetin", "value": "< 50", "unit": "%"},
      {"measurement": "inhibition at 15 min, 10 µM", "setting": "[2]; human liver microsomes, pH 7.4, probe diclofenac (10 µM)", "value": 2, "unit": "%"},
      {"measurement": "inhibition at 15 min, 10 µM", "setting": "[2]; liver microsomes, pH 7.4, probe diclofenac", "value": "< 50", "unit": "%"},
      {"measurement": "IC50", "setting": "[3]", "value": 6.3, "unit": "µM"},
      {"measurement": "reduction of proliferation as a single agent", "setting": "[4]; DMS114, 31 nM", "value": 25, "unit": "%"},
      {"measurement": "reduction of proliferation as a single agent", "setting": "[4]; DMS114, 73 nM", "value": 25, "unit": "%"},
      {"measurement": "increase in PI3K activity (PIP3 levels)", "setting": "[5]", "value": "approximately 25%"},
      {"measurement": "recovery at 10 µM", "setting": "[6]; human, % Recovery 1st", "value": 6.7, "unit": "%"},
      {"measurement": "recovery at 10 µM", "setting": "[6]; human, % Recovery 2nd", "value": 2.9, "unit": "%"},
      {"measurement": "recovery at 10 µM", "setting": "[6]; human, % Recovery Mean", "value": 4.8, "unit": "%"},
      {"measurement": "recovery at 10 µM", "setting": "[6]; human, percent recovery", "value": "< 50", "unit": "%"},
      {"measurement": "recovery at 10 µM", "setting": "[6]; mixed breeds, dog, % Recovery 1st", "value": 42.6, "unit": "%"},
      {"measurement": "recovery at 10 µM", "setting": "[6]; mixed breeds, dog, % Recovery 2nd", "value": 32.8, "unit": "%"},
      {"measurement": "recovery at 10 µM", "setting": "[6]; mixed breeds, dog, % Recovery Mean", "value": 37.7, "unit": "%"},
      {"measurement": "recovery at 10 µM", "setting": "[6]; mixed breeds, dog, percent recovery", "value": "< 50", "unit": "%"},
      {"measurement": "% Protein Bound 1st", "setting": "[7]", "value": 99.1, "unit": "%"},
      {"measurement": "% Protein Bound 2nd", "setting": "[7]", "value": 99.7, "unit": "%"},
      {"measurement": "% Protein Bound Mean", "setting": "[7]", "value": 99.4, "unit": "%"},
      {"measurement": "percent protein bound", "setting": "[7]", "value": "> 99", "unit": "%"},
      {"measurement": "% Protein Bound 1st", "setting": "[8]", "value": 99.8, "unit": "%"},
      {"measurement": "% Protein Bound 2nd", "setting": "[8]", "value": ">99.9", "unit": "%"},
      {"measurement": "% Protein Bound Mean", "setting": "[8]", "value": 99.8, "unit": "%"},
      {"measurement": "percent protein bound", "setting": "[8]", "value": "> 99", "unit": "%"},
      {"measurement": "IC50", "setting": "[9]", "value": 7.9, "unit": "µM"},
      {"measurement": "Day 15 Mean tumor weight", "setting": "[10]; COTI-2 12.5 mg/kg IV", "value": "1,471.3 ± 155.9 mg"},
      {"measurement": "Mean survival (Day ± SEM)", "setting": "[10]; COTI-2 12.5 mg/kg IV", "value": "12.8 ± 0.76", "unit": "days"},
      {"measurement": "Maximum weight loss (%) (Day #)", "setting": "[10]; COTI-2 12.5 mg/kg IV, Day 17", "value": 20.96, "unit": "%"},
      {"measurement": "Deaths", "setting": "[10]; COTI-2 12.5 mg/kg IV", "value": 1},
      {"measurement": "Day 15 Mean tumor weight", "setting": "[10]; COTI-2 50.0 mg/kg IV", "value": "1,353.4 ± 127.3 mg"},
      {"measurement": "Mean survival (Day ± SEM)", "setting": "[10]; COTI-2 50.0 mg/kg IV", "value": "12.6 ± 0.83", "unit": "days"},
      {"measurement": "Maximum weight loss (%) (Day #)", "setting": "[10]; COTI-2 50.0 mg/kg IV, Day 22", "value": 18.43, "unit": "%"},
      {"measurement": "Deaths", "setting": "[10]; COTI-2 50.0 mg/kg IV", "value": 2},
      {"measurement": "Mean Parent Remaining", "setting": "[11]", "value": 2, "unit": "%"},
      {"measurement": "% Protein Bound 1st", "setting": "[12]", "value": ">99.9", "unit": "%"},
      {"measurement": "% Protein Bound 2nd", "setting": "[12]", "value": ">99.9", "unit": "%"},
      {"measurement": "% Protein Bound Mean", "setting": "[12]", "value": ">99.9", "unit": "%"},
      {"measurement": "percent protein bound", "setting": "[12]", "value": "> 99", "unit": "%"},
      {"measurement": "recovery at 10 µM", "setting": "[13]; % Recovery 1st", "value": 16.4, "unit": "%"},
      {"measurement": "recovery at 10 µM", "setting": "[13]; % Recovery 2nd", "value": 25.1, "unit": "%"},
      {"measurement": "recovery at 10 µM", "setting": "[13]; % Recovery Mean", "value": 20.7, "unit": "%"},
      {"measurement": "recovery at 10 µM", "setting": "[13]; percent recovery", "value": "< 50", "unit": "%"},
      {"measurement": "inhibition at 15 min, 10 µM", "setting": "[14]; human liver microsomes, pH 7.4, probe omeprazole (10 µM)", "value": 4, "unit": "%"},
      {"measurement": "inhibition at 15 min, 10 µM", "setting": "[14]; liver microsomes, pH 7.4, probe omeprazole", "value": "< 50", "unit": "%"}
    ]}
  ]
}
